Measured values: patent US11845681B2, “Process and plant for treating wastewater containing micropollutants of pharmaceutical origin” (Cockerill Maintenance & Ingenierie S.A., priority 2018, dated 2023)

Key:
suspended biomass = settings: constant includes sorption, desorption and biodegradation; cited from earlier work
fixed biomass = settings: constant includes sorption, desorption and biodegradation; cited from earlier work
[1] = Purification efficiency of biologically activated carbon (BAC) columns C1 to C5; settings: for average degradation: detailed analysis on 16 molecules, over column conditions; for effect of EBCT on degradation: longer EBCTs (e.g. 19 minutes)
Excerpt: The activated carbon used was in GAC form, for example of the Norit 830W type (Cabot). According to the invention, however, several types of activated carbon may be used, by varying the nature of the carbon, the specific surface developed and the type of pores.
According to one embodiment, the GAC was conditioned for 2 months with the wastewater effluents coming from the MB-MBR before being placed in an acrylic glass column. Operation was monitored for approximately 5 months. The purpose of conditioning is to reduce the time before the breakthrough point of the filter, i.e. the moment when the adsorption capacity is exhausted and biodegradation is the dominant process.
The biological purification performance of micropollutants was evaluated according to the following methodology: • 1. Saturation of adsorption sites and verification by measuring the reduction in dissolved organic carbon; • 2. Evaluation of bacterial activity via measurements of oxygen consumption; • 3. Correlation analyzes between bacterial activity and micropollutant removal.
Based on the operational parameters selected for columns C1 to C5, the purification efficiencies of 12 of the 13 molecules indicative of the efficiency of the method are presented in FIG. 8.

NC(=O)N1c2ccccc2C=Cc2ccccc21 [Carbamazepine]
Kbio, Biomass suspended (suspended biomass): ≤0.1 l/g biomass · day
Kbio, Biomass Fixed (fixed biomass): ≤0.1 l/g biomass · day

CC[C@H]1OC(=O)[C@H](C)[C@@H](O[C@H]2C[C@@](C)(OC)[C@@H](O)[C@H](C)O2)[C@H](C)[C@@H](O[C@@H]2O[C@H](C)C[C@H](N(C)C)[C@H]2O)[C@](C)(OC)C[C@@H](C)C(=O)[C@H](C)[C@@H](O)[C@]1(C)O [Clarithromycin]
Kbio, Biomass suspended (suspended biomass): 0.18-0.29 l/g biomass · day
average degradation [1]: around 50%
effect of EBCT on degradation [1]: better degraded with longer EBCTs
Kbio, Biomass Fixed (fixed biomass): ≤0.2 l/g biomass · day

CC(=O)Nc1ccc(S(=O)(=O)Nc2cc(C)on2)cc1 [N-acetylsulfamethoxazole]
Kbio, Biomass suspended (suspended biomass): 1.1-1.4 l/g biomass · day
Kbio, Biomass Fixed (fixed biomass): 0.7-1.6 l/g biomass · day

CC(C)NCC(O)COc1ccc(CC(N)=O)cc1 (stereo not shown) [Atenolol]
Kbio, Biomass suspended (suspended biomass): 0.67-0.9 l/g biomass · day
Kbio, Biomass Fixed (fixed biomass): 0.53-0.67 l/g biomass · day

O=C(O)Cc1ccccc1Nc1c(Cl)cccc1Cl [Diclofenac]
Kbio, Biomass suspended (suspended biomass): ≤0.1 l/g biomass · day
average degradation [1]: around 50%
effect of EBCT on degradation [1]: better degraded with longer EBCTs
Kbio, Biomass Fixed (fixed biomass): 1.3-1.7 l/g biomass · day

O=P1(N(CCCl)CCCl)NCCCO1 (stereo not shown) [cyclophosphamide]
average degradation [1]: around 50%
effect of EBCT on degradation [1]: better degraded with longer EBCTs
